Series [1] deals with 4T1 cells [4T1细胞]. Nature of the series: In vitro cytotoxicity test (MTT, 72 h). The settings on record: Mus musculus, 4T1, 72 h.
The test system of series [2] is 4T1 cells [4T1细胞].

In brackets after ≈: the same amount, converted by molar mass.

The text below walks through data of patent CN108310390A, “多西他赛亚油酸酯及其脂肪乳剂和应用” (Shenyang Pharmaceutical University, priority 2018, dated 2018).

`CC(=O)O[C@@]12CO[C@@H]1C[C@H](O)[C@@]1(C)C(=O)[C@H](O)C3=C(C)[C@@H](OC(=O)[C@H](O)[C@@H](NC(=O)OC(C)(C)C)c4ccccc4)C[C@@](O)([C@@H](OC(=O)c4ccccc4)[C@H]21)C3(C)C` [多西他赛]: in series [1], the IC50 (as a rule, the concentration that gives 50% inhibition) stood at 0.0265 ± 0.00136 µg/mL (≈ 0.0328 µM). As for `CCCCCC=CCC=CCCCCCCCC(=O)OC(C(=O)OC1CC2(O)C(OC(=O)c3ccccc3)C3C4(OC(C)=O)COC4CC(O)C3(C)C(=O)C(O)C(=C1C)C2(C)C)C(NC(=O)OC(C)(C)C)c1ccccc1` (stereo not drawn) [多西他赛亚油酸酯], inhibition in series [1] was half-maximal at 0.0136 ± 0.00204 µg/mL (≈ 0.0127 µM) (IC50). For the same compound, the “cytotoxicity (in words)” value in series [2] is recorded as “细胞毒性强于多西他赛”.
